PubChem BioAssay AID258 (DTP/NCI, 2004)
Values joined by “and” are separate entries in the source; they are usually repeats but may differ in a detail not shown here. Identical values can stand only once. Toxic doses and inconclusive results are not listed.

System: CD2F1 mice, L1210 leukemia sc, survival T/C
Assay: NCI In Vivo Anticancer Drug Screen. Data for tumor model L1210 Leukemia (subcutaneous) in CD2F1 (CDF1) mice
Settings: endpoint: median survival time, higher = longer survival
Outline: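 Read-out: survival or tumor size. Value = treated (T) / vehicle control (C). Transplantable tumor in mice.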

[1] = dose: 6.25 mg/kg/injection, schedule: Q01DX009 (ip), vehicle: saline
[2] = dose: 12.5 mg/kg/injection, schedule: Q01DX009 (ip), vehicle: saline
[3] = dose: 16.0 mg/kg/injection, schedule: Q01DX009 (sc), vehicle: saline
[4] = dose: 50.0 mg/kg/injection, schedule: Q01DX009 (ip), vehicle: saline

O=c1[nH]cc(F)c(=O)[nH]1
T/C (dose: 2.5 mg/kg/injection, schedule: Q01DX009 (ip), vehicle: saline): 109 % of control and 94 % of control
T/C (dose: 5.0 mg/kg/injection, schedule: Q01DX009 (ip), vehicle: saline): 101 % of control and 106 % of control
T/C (dose: 6.0 mg/kg/injection, schedule: Q01DX009 (ip), vehicle: saline): 111 % of control
T/C (dose: 6.0 mg/kg/injection, schedule: Q01DX009 (sc), vehicle: saline): 110 % of control
T/C [1]: 93 % of control
T/C (dose: 10.0 mg/kg/injection, schedule: Q01DX009 (ip), vehicle: saline): 108 % of control and 114 % of control and 117 % of control
T/C (dose: 10.0 mg/kg/injection, schedule: Q01DX009 (sc), vehicle: saline): 102 % of control
T/C (dose: 12.5 mg/kg/injection, schedule: Q01DX006 (ip), vehicle: saline): 105 % of control
T/C [2]: 112 % of control
T/C (dose: 12.5 mg/kg/injection, schedule: Q02DX005 (ip), vehicle: saline): 111 % of control
T/C [3]: 150 % of control
T/C (dose: 20.0 mg/kg/injection, schedule: Q01DX009 (sc), vehicle: saline): 118 % of control
T/C (dose: 24.0 mg/kg/injection, schedule: Q01DX009 (ip), vehicle: saline): 155 % of control
T/C (dose: 24.0 mg/kg/injection, schedule: Q01DX009 (sc), vehicle: saline): 152 % of control and 168 % of control
T/C (dose: 25.0 mg/kg/injection, schedule: Q02DX005 (ip), vehicle: saline): 112 % of control
T/C (dose: 25.0 mg/kg/injection, schedule: Q04DX003 (ip), vehicle: saline): 100 % of control
T/C (dose: 26.7 mg/kg/injection, schedule: Q01DX009 (sc), vehicle: saline): 152 % of control
T/C (dose: 40.0 mg/kg/injection, schedule: Q01DX009 (ip), vehicle: saline): 104 % of control and 114 % of control and 94 % of control
T/C (dose: 40.0 mg/kg/injection, schedule: Q01DX009 (sc), vehicle: saline): 151 % of control and 160 % of control
T/C (dose: 48.0 mg/kg/injection, schedule: Q01DX009 (ip), vehicle: saline): 102 % of control
T/C (dose: 48.0 mg/kg/injection, schedule: Q01DX009 (sc), vehicle: saline): 117 % of control
T/C (dose: 50.0 mg/kg/injection, schedule: Q01DX001 (ip), vehicle: saline): 111 % of control
T/C [4]: 150 % of control
T/C (dose: 50.0 mg/kg/injection, schedule: Q04DX003 (ip), vehicle: saline): 100 % of control
T/C (dose: 60.0 mg/kg/injection, schedule: Q01DX009 (sc), vehicle: saline): 161 % of control
T/C (dose: 65.0 mg/kg/injection, schedule: Q01DX Z (sc), vehicle: saline): 112 % of control
T/C (dose: 80.0 mg/kg/injection, schedule: Q01DX009 (ip), vehicle: saline): 103 % of control
T/C (dose: 96.0 mg/kg/injection, schedule: Q01DX009 (ip), vehicle: saline): 91 % of control
T/C (dose: 96.0 mg/kg/injection, schedule: Q01DX009 (sc), vehicle: saline): 88 % of control
T/C (dose: 100.0 mg/kg/injection, schedule: Q01DX001 (ip), vehicle: saline): 122 % of control
T/C (dose: 100.0 mg/kg/injection, schedule: Q02DX005 (ip), vehicle: saline): 175 % of control
T/C (dose: 100.0 mg/kg/injection, schedule: Q04DX003 (ip), vehicle: saline): 155 % of control
T/C (dose: 108.0 mg/kg/injection, schedule: Q01DX Z (sc), vehicle: saline): 112 % of control
T/C (dose: 180.0 mg/kg/injection, schedule: Q01DX Z (sc), vehicle: saline): 108 % of control
T/C (dose: 400.0 mg/kg/injection, schedule: Q01DX001 (ip), vehicle: saline): 122 % of control

O=P1(NCCCl)OCCCN1CCCl (stereo not drawn)
T/C [1]: 122 % of control
T/C (dose: 6.25 mg/kg/injection, schedule: Q01DX009 (sc), vehicle: saline): 116 % of control
T/C [2]: 151 % of control
T/C (dose: 25.0 mg/kg/injection, schedule: Q01DX009 (ip), vehicle: saline): 161 % of control
T/C [4]: 169 % of control and 188 % of control
T/C (dose: 66.7 mg/kg/injection, schedule: Q01DX009 (ip), vehicle: saline): 179 % of control
T/C (dose: 66.7 mg/kg/injection, schedule: Q01DX009 (sc), vehicle: saline): 197 % of control
T/C (dose: 100.0 mg/kg/injection, schedule: Q01DX009 (ip), vehicle: saline): 188 % of control and 235 % of control
T/C (dose: 100.0 mg/kg/injection, schedule: Q01DX009 (sc), vehicle: saline): 155 % of control and 182 % of control and 232 % of control
T/C (dose: 133.4 mg/kg/injection, schedule: Q01DX009 (sc), vehicle: saline): 265 % of control
T/C (dose: 150.0 mg/kg/injection, schedule: Q01DX009 (ip), vehicle: saline): 247 % of control
T/C (dose: 150.0 mg/kg/injection, schedule: Q01DX009 (sc), vehicle: saline): 258 % of control
T/C (dose: 200.0 mg/kg/injection, schedule: Q01DX001 (sc), vehicle: water): 187 % of control and 188 % of control
T/C (dose: 300.0 mg/kg/injection, schedule: Q01DX001 (sc), vehicle: water): 211 % of control and 217 % of control
T/C (dose: 300.0 mg/kg/injection, schedule: Q01DX009 (sc), vehicle: saline): 176 % of control
T/C (dose: 400.0 mg/kg/injection, schedule: Q01DX001 (sc), vehicle: water): 241 % of control
T/C (dose: 400.0 mg/kg/injection, schedule: Q01DX009 (ip), vehicle: saline): 98 % of control
T/C (dose: 400.0 mg/kg/injection, schedule: Q01DX009 (sc), vehicle: saline): 108 % of control
T/C (dose: 500.0 mg/kg/injection, schedule: Q01DX001 (sc), vehicle: water): 241 % of control and 244 % of control
T/C (dose: 600.0 mg/kg/injection, schedule: Q01DX001 (sc), vehicle: water): 300 % of control and 302 % of control
T/C (dose: 700.0 mg/kg/injection, schedule: Q01DX001 (sc), vehicle: water): 264 % of control and 290 % of control

Cc1c(N)nc([C@H](CC(N)=O)NC[C@H](N)C(N)=O)nc1C(=O)N[C@H](C(=O)N[C@H](C)[C@@H](O)[C@H](C)C(=O)N[C@H](C(=O)NCCc1nc(-c2nc(C(=O)NCCC[S+](C)C)cs2)cs1)[C@@H](C)O)C(OC1OC(CO)C(O)C(O)C1OC1OC(CO)C(O)C(OC(N)=O)C1O)c1cnc[nH]1 (stereo partly drawn)
T/C (dose: 1.0 mg/kg/injection, schedule: Q01DX009 (ip), vehicle: saline): 100 % of control
T/C (dose: 2.0 mg/kg/injection, schedule: Q01DX009 (ip), vehicle: saline): 100 % of control and 101 % of control and 107 % of control
T/C (dose: 2.0 mg/kg/injection, schedule: Q01DX009 (sc), vehicle: saline): 110 % of control
T/C (dose: 4.0 mg/kg/injection, schedule: Q01DX009 (ip), vehicle: saline): 100 % of control and 105 % of control and 109 % of control
T/C (dose: 4.0 mg/kg/injection, schedule: Q01DX009 (sc), vehicle: saline): 102 % of control
T/C (dose: 8.0 mg/kg/injection, schedule: Q01DX009 (ip), vehicle: saline): 100 % of control and 107 % of control and 109 % of control
T/C (dose: 8.0 mg/kg/injection, schedule: Q01DX009 (sc), vehicle: saline): 102 % of control
T/C (dose: 16.0 mg/kg/injection, schedule: Q01DX009 (ip), vehicle: saline): 104 % of control and 107 % of control and 112 % of control
T/C [3]: 106 % of control
T/C (dose: 32.0 mg/kg/injection, schedule: Q01DX009 (ip), vehicle: saline): 102 % of control and 109 % of control and 112 % of control
T/C (dose: 32.0 mg/kg/injection, schedule: Q01DX009 (sc), vehicle: saline): 100 % of control
T/C (dose: 64.0 mg/kg/injection, schedule: Q01DX009 (ip), vehicle: saline): 112 % of control
